Some results are limits rather than exact numbers.

The target in assay [1] is KRas G12C (Homo sapiens, UniProt P01116, C118S/C51S/C80L/G12C). The experiment in a line: KRas G12C Modification Assay (LCMS detection of covalent adduct). To be noted: normalized percent of control; tested at 5 μM concentration for 3 hours. It is filed as binding. The gist of the method: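 Covalent modification was read by reverse-phase LC/MS of intact protein after compound exposure, each reaction stopped at its time point with 25 mM acetic acid. Unmodified-protein signal, taken as percent of total, was normalised to untreated protein and reported as POC.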

For assay [2], the system named is NCI-H358 cells (express KRas G12C), Phospho-ERK. The experiment in a line: Cellular inhibition of KRas G12C: Phospho-ERK in NCI-H358 cells. Format: cell-based. To be noted: Homo sapiens, NCI-H358, 3 h, pERK(Thr202/Tyr204) normalized with GAPDH; NCI-H358 cells; 3 hours; read-out: IC50. Put shortly: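 IC50 derived by 4-parameter fit of GAPDH-normalized pERK(Thr202/Tyr204) signal, as percent of DMSO control. Signal came from in-cell immunodetection with infrared secondaries after 3 h compound exposure of KRas G12C NCI-H358 cells at 0.5% DMSO.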

The IC50 is the concentration that inhibits the measured activity by half. Regarding `C=CC(=O)N1CCN(c2nc(O[C@H](C)[C@H]3CCCN3C)nc3c2CCN(c2cc(O)cc4ccccc24)C3)C[C@@H]1CC#N` [Example 348, 2-[(2S)-4-[7-(3-hydroxy-1-naphthyl)-2-[(1R)-1-[(2R)-1-methylpyrrolidin-2-yl]ethoxy]-6,8-dihydro-5H-pyrido[3,4-d]pyrimidin-4-yl]-1-prop-2-enoyl-piperazin-2-yl]acetonitrile], the POC entry in assay [1] is “C (“C”>50% POC)”. In addition, in assay [2], the 50% inhibitory concentration (IC50) fell in the range of 0.1 to 1000 nM.
The corresponding values for `C=CC(=O)N1CCN(c2nc(OC[C@@H]3CCCN3C)nc3c2CCN(c2c(C)ccc(F)c2C)C3)C[C@@H]1CC#N` [Example 349, 2-((S)-1-acryloyl-4-(7-(3-fluoro-2,6-dimethylphenyl)-2-(((S)-1-methylpyrrolidin-2-yl)methoxy)-5,6,7,8-tetrahydropyrido[3,4-d]pyrimidin-4-yl)piperazin-2-yl)acetonitrile] are “C (“C”>50% POC)” and 0.1 to 1000 nM.
With `C=CC(=O)N1CCN(c2nc(OC[C@@H]3CCN(C)C3)nc3c2CCN(c2cc(O)cc4ccccc24)C3)C[C@@H]1CC#N` [Example 350, 2-((S)-1-acryloyl-4-(7-(3-hydroxynaphthalen-1-yl)-2-(((R)-1-methylpyrrolidin-3-yl)methoxy)-5,6,7,8-tetrahydropyrido[3,4-d]pyrimidin-4-yl)piperazin-2-yl)acetonitrile], in assay [1], the POC entry is on record as “C (“C”>50% POC)”. For the same compound, the half-inhibitory concentration (IC50) in assay [2] lay within 0.1 to 1000 nM.
As to `C=CC(=O)N1CCN(c2nc(OCc3ncc[nH]3)nc3c2CCN(c2cccc4ccccc24)C3)C[C@@H]1CC#N` [Example 351, 2-[(2S)-4-[2-(1H-imidazol-2-ylmethoxy)-7-(1-naphthyl) -6,8-dihydro-5H-pyrido[3,4-d]pyrimidin-4-yl]-1-prop-2-enoyl-piperazin-2-yl]acetonitrile], in assay [1], the POC result is recorded as “C (“C”>50% POC)”. Moreover, the half-inhibitory concentration (IC50) in assay [2] lay in the range of 0.1 to 1000 nM.
Regarding `C=CC(=O)N1CCN(c2nc(OC[C@@H]3CCCN3C)nc3c2CCN(c2cnccc2C2CC2)C3)C[C@@H]1CC#N` [Example 352, 2-[(2S)-4-[7-(4-cyclopropyl-3-pyridyl)-2-[[(2S)-1-methylpyrrolidin-2-yl]methoxy]-6,8-dihydro-5H-pyrido[3,4-d]pyrimidin-4-yl]-1-prop-2-enoyl-piperazin-2-yl]acetonitrile], the POC result in assay [1] is “C (“C”>50% POC)”. In addition, in assay [2], the 50% inhibitory concentration (IC50) was in the range of 0.1 to 1000 nM.
On to `C=CC(=O)N1CCN(c2nc(OC[C@@H]3CCCN3C)nc3c2CCN(c2cccc4ccccc24)C3)[C@H](C)C1` [Example 353, 1-[(3R)-3-methyl-4-[2-[[(2S)-1-methylpyrrolidin-2-yl]methoxy]-7-(1-naphthyl)-6,8-dihydro-5H-pyrido[3,4-d]pyrimidin-4-yl]piperazin-1-yl]prop-2-en-1-one], for which, in assay [1], the POC entry is recorded as “C (“C”>50% POC)”. Moreover, in assay [2], the half-maximal inhibitory concentration (IC50) was above 1000 nM.
Take `C=CC(=O)N1CCN(c2nc(OC[C@@H]3CCCN3C)nc3c2CCN(c2cccc4ccccc24)C3)C(C)(C)C1` [Example 354, 1-[3,3-dimethyl-4-[2-[[(2S)-1-methylpyrrolidin-2-yl]methoxy]-7-(1-naphthyl)-6,8-dihydro-5H-pyrido[3,4-d]pyrimidin-4-yl]piperazin-1-yl]prop-2-en-1-one]: the POC entry in assay [1] is “C (“C”>50% POC)”. In assay [2], the IC50 is above 1000 nM.
Turning to `C=CC(=O)N1CCN(c2nc(OC[C@@H]3C[C@@H](F)CN3C)nc3c2CCN(c2cc(OC)cc4ccccc24)C3)CC1` [Example 355, 1-[4-[2-[[(2S,4R)-4-fluoro-1-methyl-pyrrolidin-2-yl]methoxy]-7-(3-methoxy-1-naphthyl)-6,8-dihydro-5H-pyrido[3,4-d]pyrimidin-4-yl]piperazin-1-yl]prop-2-en-1-one], in assay [1], the POC result was “A (“A”≤25% POC)”. Moreover, the half-maximal inhibitory concentration (IC50) in assay [2] was above 1000 nM.
Consider `C=CC(=O)N1CCN(c2nc(OC[C@@H]3C[C@@H](OC)CN3C)nc3c2CCN(c2cc(OC)cc4ccccc24)C3)CC1` [Example 356, 1-[4-[2-[[(2S,4R)-4-methoxy-1-methyl-pyrrolidin-2-yl]methoxy]-7-(3-methoxy-1-naphthyl)-6,8-dihydro-5H-pyrido[3,4-d]pyrimidin-4-yl]piperazin-1-yl]prop-2-en-1-one], for which the POC result in assay [1] is “C (“C”>50% POC)”. In addition, in assay [2], the IC50 was above 1000 nM.
Regarding `C=CC(=O)N1CCN(c2nc(OC[C@@H]3C[C@@H](F)CN3C)nc3c2CCN(c2cc(O)cc4ccccc24)C3)CC1` [Example 357, 1-[4-[2-[[(2S,4R)-4-fluoro-1-methyl-pyrrolidin-2-yl]methoxy]-7-(3-hydroxy-1-naphthyl)-6,8-dihydro-5H-pyrido[3,4-d]pyrimidin-4-yl]piperazin-1-yl]prop-2-en-1-one], in assay [1], the POC entry was “A (“A”≤25% POC)”. For the same compound, the IC50 in assay [2] is 0.1 to 1000 nM.
Consider `C#CC[C@H]1CN(c2nc(OC[C@@H]3CCCN3C)nc3c2CCN(c2cccc4ccccc24)C3)CCN1C(=O)C=C` [Example 358, 1-[(2S)-4-[2-[[(2S)-1-methylpyrrolidin-2-yl]methoxy]-7-(1-naphthyl)-6,8-dihydro-5H-pyrido[3,4-d]pyrimidin-4-yl]-2-prop-2-ynyl-piperazin-1-yl]prop-2-en-1-one], for which the POC entry in assay [1] is “C (“C”>50% POC)”. In addition, the 50% inhibitory concentration (IC50) in assay [2] was 0.1 to 1000 nM.
Turning to `C=CC(=O)N1CCN(c2nc(OC[C@@H]3CCCN3C)nc3c2CCN(c2cccc4cccc(C)c24)C3)C[C@@H]1CC#N` [Example 359, 2-((S)-1-acryloyl-4-(7-(8-methylnaphthalen-1-yl)-2-(((S)-1-methylpyrrolidin-2-yl)methoxy)-5,6,7,8-tetrahydropyrido[3,4-d]pyrimidin-4-yl)piperazin-2-yl)acetonitrile], the POC result in assay [1] is on record as “C (“C”>50% POC)”. Further, the IC50 in assay [2] fell in the range of 0.1 to 1000 nM.
The corresponding values for `C=CC(=O)N1CCN(c2nc(OC[C@@H]3CCCN3C)nc3c2CCN(c2cccc4cccc(CC)c24)C3)C[C@@H]1CC#N` [Example 360, 2-[(2S)-4-[7-(8-ethyl-1-naphthyl)-2-[[(2S)-1-methylpyrrolidin-2-yl]methoxy]-6,8-dihydro-5H-pyrido[3,4-d]pyrimidin-4-yl]-1-prop-2-enoyl-piperazin-2-yl]acetonitrile] are “C (“C”>50% POC)” and 0.1 to 1000 nM.
As for `C=CC(=O)N1CCN(c2nc(OC[C@@H]3CCN(C)C3)nc3c2CCN(c2cccc4cccc(Cl)c24)C3)C[C@@H]1CC#N` [Example 361, 2-[(2S)-4-[7-(8-chloro-1-naphthyl)-2-[[(3R)-1-methylpyrrolidin-3-yl]methoxy]-6,8-dihydro-5H-pyrido[3,4-d]pyrimidin-4-yl]-1-prop-2-enoyl-piperazin-2-yl]acetonitrile], in assay [1], the POC result is listed as “C (“C”>50% POC)”. For the same compound, the IC50 in assay [2] lay within 0.1 to 1000 nM.
The corresponding values for `C=CC(=O)N1CCN(c2nc(OCCN3CCCCC3)nc3c2CCN(c2cccc4cccc(Cl)c24)C3)C[C@@H]1CC#N` [Example 362, 2-[(2S)-4-[7-(8-chloro-1-naphthyl)-2-[2-(1-piperidyl)ethoxy]-6,8-dihydro-5H-pyrido[3,4-d]pyrimidin-4-yl]-1-prop-2-enoyl-piperazin-2-yl]acetonitrile] are “C (“C”>50% POC)” and 0.1 to 1000 nM.
On to `C=CC(=O)N1CCN(c2nc(OC[C@H]3CN(C)CCO3)nc3c2CCN(c2cccc4cccc(Cl)c24)C3)C[C@@H]1CC#N` [Example 363, 2-[(2S)-4-[7-(8-chloro-1-naphthyl)-2-[[(2R)-4-methylmorpholin-2-yl]methoxy]-6,8-dihydro-5H-pyrido[3,4-d]pyrimidin-4-yl]-1-prop-2-enoyl-piperazin-2-yl]acetonitrile], for which the POC result in assay [1] is given as “C (“C”>50% POC)”. The half-inhibitory concentration (IC50) in assay [2] was 0.1 to 1000 nM.
In the case of `C=CC(=O)N1CCN(c2nc(OC[C@@H]3CCCN3C)nc3c2CCN(c2cccc(C)c2C(F)(F)F)C3)C[C@@H]1CC#N` [Example 364, 2-[(2S)-4-[2-[[(2S)-1-methylpyrrolidin-2-yl]methoxy]-7-[3-methyl-2-(trifluoromethyl)phenyl]-6,8-dihydro-5H-pyrido[3,4-d]pyrimidin-4-yl]-1-prop-2-enoyl-piperazin-2-yl]acetonitrile], the POC result in assay [1] is “C (“C”>50% POC)”. Moreover, the IC50 in assay [2] was in the range of 0.1 to 1000 nM.
For the compound `C=CC(=O)N1CCN(c2nc(OCCCN3C[C@@H]4C[C@H]3CO4)nc3c2CCN(c2cccc4cccc(Cl)c24)C3)C[C@@H]1CC#N` [Example 365, 2-[(2S)-4-[7-(8-chloro-1-naphthyl)-2-[3-[(1S,4S)-2-oxa-5-azabicyclo[2.2.1]heptan-5-yl]propoxy]-6,8-dihydro-5H-pyrido[3,4-d]pyrimidin-4-yl]-1-prop-2-enoyl-piperazin-2-yl]acetonitrile], the POC result in assay [1] is “C (“C”>50% POC)”. Further, the IC50 in assay [2] fell in the range of 0.1 to 1000 nM.
The corresponding values for `C=CC(=O)N1CCN(c2nc(OC[C@@H]3CC(F)(F)CN3C)nc3c2CCN(c2cccc4cccc(Cl)c24)C3)C[C@@H]1CC#N` [Example 366, 2-[(2S)-4-[7-(8-chloro-1-naphthyl)-2-[[(2S)-4,4-difluoro-1-methyl-pyrrolidin-2-yl]methoxy]-6,8-dihydro-5H-pyrido[3,4-d]pyrimidin-4-yl]-1-prop-2-enoyl-piperazin-2-yl]acetonitrile] are “C (“C”>50% POC)” and 0.1 to 1000 nM.
As to `CN1CCC[C@H]1COc1nc2c(c(N3CCN(C(=O)/C=C/CN4CCOCC4)[C@@H](CC#N)C3)n1)CCN(c1cccc3cccc(Cl)c13)C2` [Example 367, 2-[(2S)-4-[7-(8-chloro-1-naphthyl)-2-[[(2S)-1-methylpyrrolidin-2-yl]methoxy]-6,8-dihydro-5H-pyrido[3,4-d]pyrimidin-4-yl]-1-[(E)-4-morpholinobut-2-enoyl]piperazin-2-yl]acetonitrile], the POC result in assay [1] is “C (“C”>50% POC)”. Besides, in assay [2], the 50% inhibitory concentration (IC50) fell in the range of 0.1 to 1000 nM.
